Assay results as given in patent US11787847B2, “Method of identifying malodor modulating compounds” (FIRMENICH SA, priority 2017, dated 2023).

Tests used:
[1] = test system: cells that do not express the odorant receptors (HEK293T); experiment: Mock transfection control experiment (Example 5); format: cell-based
Experimental: (§1) Functional dose-response experiments were performed to evaluate the level of DMTS activity of the modified cell line expressing individual putative DMTS receptors. Using a cell-based assay, mouse receptor Olfr1193, Olfr1093, Olfr1097, Olrf166, Olfr169, Olfr738 and Olfr742, and human receptor OR4S2 and OR52N5 were tested in an HEK293T cell line wherein the endogenous RTP1 gene has been activated and the odorant receptor chaperone protein was expressed (described in WO2016/201153). The mouse receptor genes were tagged with a Lucy-FLAG®-Rho tag combination and the human receptors were tagged with a Rho-FLAG® tag combination resulting in a tag:receptor fusion protein for the cell based assay. Receptor genes were co-transfected with the canonical olfactory human G-protein alpha subunit Golf gene and were exposed to increasing concentrations of the malodor odorant. Co-expression of the human Golf activates the Gs transduction pathway that leads to an internal cAMP increase upon binding to the appropriate ligand. Odorant-induced activity was detected by measuring the cAMP increase in the cytosol using an Homogeneous Time Resolved Fluorescence (HTRF) based kit (CisBio, cAMP dynamic 2 kit, cat. 62AM4PEJ). […]

mouse receptor Olfr1093 = biological target: T1, mouse receptor Olfr1093 (Mus musculus, UniProt B2RR12); experiment: cell-based dose-response, cAMP increase by HTRF, HEK293T cells (endogenous RTP1 activated) co-transfected with human Golf, Lucy-FLAG-Rho tagged receptor; conditions: FIG. 5, Example 5, SEQ ID NO: 4
T1 construct: cAMP HTRF
T1 sequence (B2RR12 1-322): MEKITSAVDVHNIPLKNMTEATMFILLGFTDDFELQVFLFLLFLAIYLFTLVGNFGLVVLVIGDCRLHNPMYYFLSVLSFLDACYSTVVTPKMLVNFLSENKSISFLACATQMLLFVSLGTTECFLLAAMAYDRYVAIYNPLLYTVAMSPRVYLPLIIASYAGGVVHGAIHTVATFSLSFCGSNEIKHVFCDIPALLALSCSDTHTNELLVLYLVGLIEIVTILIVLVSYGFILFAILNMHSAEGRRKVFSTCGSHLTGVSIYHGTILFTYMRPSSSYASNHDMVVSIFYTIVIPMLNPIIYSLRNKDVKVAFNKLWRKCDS
Experimental: (§2) Functional dose-response experiments were performed to evaluate the level of DMTS activity of the modified cell line expressing individual putative DMTS receptors. Using a cell-based assay, mouse receptor Olfr1193, Olfr1093, Olfr1097, Olrf166, Olfr169, Olfr738 and Olfr742, and human receptor OR4S2 and OR52N5 were tested in an HEK293T cell line wherein the endogenous RTP1 gene has been activated and the odorant receptor chaperone protein was expressed (described in WO2016/201153). The mouse receptor genes were tagged with a Lucy-FLAG®-Rho tag combination and the human receptors were tagged with a Rho-FLAG® tag combination resulting in a tag:receptor fusion protein for the cell based assay. Receptor genes were co-transfected with the canonical olfactory human G-protein alpha subunit Golf gene and were exposed to increasing concentrations of the malodor odorant. Co-expression of the human Golf activates the Gs transduction pathway that leads to an internal cAMP increase upon binding to the appropriate ligand. Odorant-induced activity was detected by measuring the cAMP increase in the cytosol using an Homogeneous Time Resolved Fluorescence (HTRF) based kit (CisBio, cAMP dynamic 2 kit, cat. 62AM4PEJ). […] The activity levels are reported by the potency of the DMTS induced-response for each receptor as a measure of the EC50 value (the effective concentration at which the receptor responds at its half-maximal activation efficacy level for a given compound).
(§3) Functional dose-response experiments were performed to confirm the DMTS activity on the DMTS receptors identified in Example 2 and to further characterize their response to DMDS. Using the same cell-based assay described in Example 2, mouse receptors Olfr1193, Olfr1093, Olfr1097, Olfr166, Olfr169, Olfr738, Olfr742 and of human odorant receptor OR4S2 were tested with increasing concentration of DMTS, DMDS or butyric acid (control). […] A weak response for OR4S2 and Olfr169 to butyric acid was visible but was too weak to consider butyric acid as a representative ligand for these receptors. The activity levels are reported by the potency of DMTS or DMDS induced-response for each receptor as a measure of the EC50 value, EC50DMTS and EC50DMDS respectively. […] Competitive antagonists at the malodor binding site of these receptors have the potential to reduce the unpleasant perception of both DMTS and DMDS.

mouse receptor Olfr169 = biological target: T2, mouse receptor Olfr169 (Mus musculus, UniProt Q7TS53); experiment: as above; conditions: FIG. 5, Example 5, SEQ ID NO: 10
T2 construct: cAMP HTRF
T2 sequence (Q7TS53 1-313): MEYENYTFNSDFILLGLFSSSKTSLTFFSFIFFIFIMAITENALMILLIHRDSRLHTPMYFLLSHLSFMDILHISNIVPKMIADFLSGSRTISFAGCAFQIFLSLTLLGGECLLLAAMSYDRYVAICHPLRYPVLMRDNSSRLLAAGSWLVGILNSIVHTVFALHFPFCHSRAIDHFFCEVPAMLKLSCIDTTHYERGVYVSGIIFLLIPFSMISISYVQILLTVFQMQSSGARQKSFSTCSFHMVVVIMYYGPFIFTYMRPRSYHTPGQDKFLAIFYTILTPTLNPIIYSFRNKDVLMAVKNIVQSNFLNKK
Experimental: as §2, §3

mouse receptor Olfr166 = biological target: T3, mouse receptor Olfr166 (Mus musculus, UniProt Q0VEL6); experiment: as above; conditions: FIG. 5, Example 5, SEQ ID NO: 8
T3 construct: cAMP HTRF
T3 sequence (Q0VEL6 1-312): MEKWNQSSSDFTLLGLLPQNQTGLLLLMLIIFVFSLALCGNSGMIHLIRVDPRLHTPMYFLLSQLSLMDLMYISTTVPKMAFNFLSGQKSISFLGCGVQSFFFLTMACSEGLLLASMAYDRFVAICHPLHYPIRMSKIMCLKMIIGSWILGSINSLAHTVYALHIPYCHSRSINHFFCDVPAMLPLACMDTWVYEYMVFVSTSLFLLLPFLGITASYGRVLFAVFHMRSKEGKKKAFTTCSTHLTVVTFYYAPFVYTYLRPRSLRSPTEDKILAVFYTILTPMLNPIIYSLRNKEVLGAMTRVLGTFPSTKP
Experimental: as §2, §3

mouse receptor Olfr742 = biological target: T4, mouse receptor Olfr742 (Mus musculus, UniProt A2RTP5); experiment: as above; conditions: FIG. 5, Example 5, SEQ ID NO: 14
T4 construct: cAMP HTRF
T4 sequence (A2RTP5 1-311): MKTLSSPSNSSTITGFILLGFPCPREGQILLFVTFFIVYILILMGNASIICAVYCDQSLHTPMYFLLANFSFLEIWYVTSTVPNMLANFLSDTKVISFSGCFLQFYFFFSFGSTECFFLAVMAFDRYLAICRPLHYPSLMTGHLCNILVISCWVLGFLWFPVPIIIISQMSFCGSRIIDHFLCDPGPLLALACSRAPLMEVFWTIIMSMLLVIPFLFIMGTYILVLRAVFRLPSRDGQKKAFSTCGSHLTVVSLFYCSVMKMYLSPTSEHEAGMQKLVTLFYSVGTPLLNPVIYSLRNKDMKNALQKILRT
Experimental: as §2, §3

mouse receptor Olfr1193 = biological target: T5, mouse receptor Olfr1193 (Mus musculus, UniProt A2AV13); experiment: as above; conditions: FIG. 5, Example 5, SEQ ID NO: 2
T5 construct: cAMP HTRF
T5 sequence (A2AV13 1-318): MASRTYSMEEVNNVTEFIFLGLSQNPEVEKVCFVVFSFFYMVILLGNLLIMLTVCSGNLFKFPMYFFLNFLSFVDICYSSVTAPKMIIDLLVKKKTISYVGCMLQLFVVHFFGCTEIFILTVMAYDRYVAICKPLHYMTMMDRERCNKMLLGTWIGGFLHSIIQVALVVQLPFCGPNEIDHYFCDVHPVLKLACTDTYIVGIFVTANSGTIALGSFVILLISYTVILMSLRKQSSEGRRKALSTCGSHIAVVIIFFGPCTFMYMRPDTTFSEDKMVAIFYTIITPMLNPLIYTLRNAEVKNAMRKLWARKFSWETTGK
Experimental: as §2, §3

mouse receptor Olfr738 = biological target: T6, mouse receptor Olfr738 (Mus musculus, UniProt L7N1X7); experiment: as above; conditions: FIG. 5, Example 5, SEQ ID NO: 12
T6 construct: cAMP HTRF
T6 sequence (L7N1X7 1-311): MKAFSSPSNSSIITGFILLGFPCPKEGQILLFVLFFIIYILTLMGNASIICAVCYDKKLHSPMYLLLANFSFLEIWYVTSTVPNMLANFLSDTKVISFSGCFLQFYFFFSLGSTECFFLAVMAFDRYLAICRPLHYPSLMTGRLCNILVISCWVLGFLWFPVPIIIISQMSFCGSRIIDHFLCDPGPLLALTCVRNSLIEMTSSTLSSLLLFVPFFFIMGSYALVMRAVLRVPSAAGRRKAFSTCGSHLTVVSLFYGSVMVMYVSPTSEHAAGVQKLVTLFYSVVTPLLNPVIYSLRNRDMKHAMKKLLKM
Experimental: as §2, §3

mouse receptor Olfr1097 = biological target: T7, mouse receptor Olfr1097 (Mus musculus, UniProt Q8VGA2); experiment: as above; conditions: FIG. 5, Example 5, SEQ ID NO: 6
T7 construct: cAMP HTRF
T7 sequence (Q8VGA2 1-315): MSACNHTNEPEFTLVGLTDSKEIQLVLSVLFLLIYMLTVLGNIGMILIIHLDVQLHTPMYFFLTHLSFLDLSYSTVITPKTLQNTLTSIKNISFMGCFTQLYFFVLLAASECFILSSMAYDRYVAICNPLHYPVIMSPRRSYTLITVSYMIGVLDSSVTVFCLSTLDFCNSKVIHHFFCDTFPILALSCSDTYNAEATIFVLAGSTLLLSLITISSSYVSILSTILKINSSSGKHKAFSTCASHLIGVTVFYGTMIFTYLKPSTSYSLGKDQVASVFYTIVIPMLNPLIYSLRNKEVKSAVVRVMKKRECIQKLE
Experimental: as §2, §3

[2] = test system: mouse receptors Olfr1193, Olfr1093, Olfr1097, Olfr166, Olfr169, Olfr738, Olfr742 and human odorant receptor OR4S2; experiment: cAMP HTRF dose-response assay, DMTS/DMDS response profiles (Example 5); format: cell-based; conditions: increasing concentration of compound; relative to butyric acid control
Experimental: as §1

Olfr169 = experiment: cAMP HTRF dose-response assay (Example 5), Olfr169; format: cell-based, mouse; conditions: increasing concentration
Experimental: as §1

[3] = test system: mouse receptor Olfr1193, Olfr1093, Olfr1097, Olrf166, Olfr169, Olfr738 and Olfr742, and human receptor OR4S2 and OR52N5; experiment: cAMP HTRF dose-response assay in HEK293T cells expressing odorant receptors (Example 2); format: cell-based; conditions: increasing concentrations of odorant, receptors co-transfected with human Golf
OR4S2 = biological target: T8, OR4S2 (Homo sapiens, UniProt Q8NH73); experiment: cAMP HTRF dose-response assay (Example 5), OR4S2; format: cell-based; design: expressed in transfected cells; conditions: increasing concentration
T8 sequence (Q8NH73 1-311): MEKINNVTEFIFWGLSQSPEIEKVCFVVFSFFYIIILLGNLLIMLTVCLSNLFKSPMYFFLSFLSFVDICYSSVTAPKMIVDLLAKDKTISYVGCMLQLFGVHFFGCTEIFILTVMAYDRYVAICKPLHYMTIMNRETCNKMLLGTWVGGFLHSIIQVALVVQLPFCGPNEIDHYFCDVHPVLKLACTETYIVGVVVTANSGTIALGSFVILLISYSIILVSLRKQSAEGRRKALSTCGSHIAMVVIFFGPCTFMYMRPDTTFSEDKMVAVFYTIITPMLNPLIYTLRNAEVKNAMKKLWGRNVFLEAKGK
Experimental: as §1

SMILES | activity upon exposure in mock transfected cells [1] | EC50 (mouse receptor Olfr1093) [µM] | EC50 (mouse receptor Olfr169) [µM] | EC50 (mouse receptor Olfr166) [µM] | EC50 (mouse receptor Olfr742) [µM] | EC50 (mouse receptor Olfr1193) [µM] | EC50 (mouse receptor Olfr738) [µM] | EC50 (mouse receptor Olfr1097) [µM] | receptor activity (cAMP increase) [2] | response to butyric acid (cAMP) (Olfr169) | receptor activity (cAMP increase in the cytosol) [3] | response to butyric acid (cAMP) (OR4S2)
CSSC [DMDS, dimethyl disulfide] | did not show activity | 458 | 102 | 12 | 69 | 40 | 355 | 87 | strong dose-dependent increase of the receptor activity | – | – | –
CCCC(=O)O [butyric acid] | – | – | – | – | – | – | – | – | – | weak response | not | weak response
